Measured values as given in patent US20240091242A1, “LIPIDS THAT REDUCE LUNG DAMAGE, IMPROVE PULMONARY FUNCTION AND DECREASE PRO-INFLAMMATORY CYTOKINES” (Signpath Pharma, Inc., priority 2021, published 2024).

Test system: pro-inflammatory cytokines in the plasma
Assay: Multiplex analysis of cytokine levels in plasma, murine LPS ARDS model
Format: in vivo, mouse
Conditions: for IL3 level in plasma / IL7 level in plasma / MCP-1 level in plasma / MIP-1alpha level in plasma / MIP-2 level in plasma: in pg/mL (unit assumed)
Text: C57B16/N mice were obtained from Charles River Laboratories (Montreal, Quebec). Male mice, 20-25 g of body weight, were used throughout the studies. Animals were housed in specific pathogen[…]free conditions, and all experiments were approved by Institutional Animal Care and Use Committee (IPST_SL20200402-1). Animal studies are reported in compliance with […] guidelines.
All delivered mice were kept for one week as an acclimatization period prior to performing any experiments. Animals were housed in a maximum of two mice per cage under a 12[…]h light/12[…]h dark cycle at a temperature of ˜20-22° C. and 40-60% humidity. Food and water were available ad libitum. Each cage of mice was blindly assigned for different treatments or maintained as a control group according to the experimental design. The individual who carried out the experiments was not blinded as to treatment, but data analysis and experiments were otherwise blinded to avoid any bias.
In the ARDS group, mice received Escherichia coli O111:B4 lipopolysaccharide (50 μg in 0.05 mL saline, i.t.), while, in the control group, the animals received an instillation of saline (0.05 mL, i.t.). For intratracheal instillation, mice were slightly anesthetized with isoflurane.
The lipid SPPCT-800 was dissolved in water (low dose—2 mg/ml; high dose—20 mg/ml). For the 24-hour study, two treatment approaches were used. Mice received a single dose of SPPCT-800 (200 mg/kg, per gavage) as prevention (30 minutes before the LPS instillation), or as a single dose of either 20 mg/kg or 200 mg/kg as therapy (3-hour after the LPS instillation). For the 72-hour study, mice received a total of 8 treatments of SPPCT-800 (200 mg/kg) starting at 3-hour after the LPS instillation. Disease progression in mice was assessed by the evaluation of pulmonary functions, blood oxygen saturation, and body weight change. On the terminal day of each study (24 hours or 72 hours), measurement of cytokine levels in the plasma and BALF, and histopathology evaluations were done.
Multiplex analysis of mediators. The inventors quantified 31 different mediators in the BALF and plasma by using a Discovery Assay® (Mouse Cytokine and Chemokine Array 31-Plex (MD31), Eve Technologies Corp, Calgary, AB, Canada). The multiplex assay was performed at Eve Technologies using the Bio-Plex™ 200 system (Bio-Rad Laboratories, Inc., Hercules, CA, USA) and a Milliplex Mouse Cytokine/Chemokine kit (Millipore, St. Charles, MO, USA) according to Eve Tech protocol. The 31-plex consisted of Eotaxin, G-CSF, GM-CSF, IFN-γ, IL-1α, IL-1β, IL-2, IL-3, IL-4, IL-5, IL-6, IL-7, IL-9, IL-10, IL-12 (p40), IL-12 (p70), IL-13, IL-15, IL-17, IP-10, KC, LIF, MCP-1, M-CSF, MIG, MIP-1α, MIP-1β, MIP-2,RANTES, TNFα, and VEGF. The assay sensitivities of these markers range from 0.1 pg/mL to 33.3 pg/mL. Individual analytes' values and other assay details are available on Eve Technologies' website and in the Milliplex protocol.
Statistical Analysis. Results are expressed as means±SEM. Comparisons were made on normally distributed data using ANOVA, followed by a Fisher post hoc test to assess the difference between LPS+vehicle group with GraphPad Prism Software version 8.0 (San Diego, CA, USA). Differences were considered statistically significant when P values were less than 0.05. (* Shown difference versus Sham animals and # shown difference versus LPS+Vehicle group. * Means P<0.05, ** P<0.01, *** P<0.001 while # means P<0.05, ##P<0.01 and ###P<0.001).

[1] = 24-hours, Pre: SPP4040 30 minutes before LPS
[2] = 24-hours, Thera: SPP4040 3 hours after LPS
[3] = 72-hours, Thera: eight SPP4040 injections over 72 hours after LPS

Question: Which results are given for `CCCCCCCCCCCCCC(=O)OCC(COP(=O)([O-])OCC(COC(=O)CCC)OC(=O)CCC)OC(=O)CCCCCCCCCCCCC.CCCCCCCCCCCCCC(=O)OCC(COP(=O)([O-])OCC(COC(=O)CCC)OC(=O)CCC)OC(=O)CCCCCCCCCCCCC.[Mg+2]` (centres unmarked) [SPPCT-800]?
Answer: Eotaxin level in plasma [1]: 719 ± 138; G-CSF level in plasma [1]: 21035 ± 2241; GM-CSF level in plasma [1]: 12 ± 2; IFN gamma level in plasma [1]: 1 ± 1; IL1-alpha level in plasma [1]: 3196 ± 3107; IL1-beta level in plasma [1]: 3.8 ± 0.7; IL2 level in plasma [1]: 11 ± 3; IL4 level in plasma [1]: 0.2 ± 0.1; IL5 level in plasma [1]: 8 ± 2; IL6 level in plasma [1]: 176 ± 29; IL9 level in plasma [1]: 2 ± 1; IL10 level in plasma [1]: 57 ± 8; IL12 (p40) level in plasma [1]: 12 ± 1; IL12 (p70) level in plasma [1]: 17 ± 7; IL13 level in plasma [1]: 22 ± 3; IL15 level in plasma [1]: 63 ± 15; IL17 level in plasma [1]: 2.6 ± 0.3; IP-10 level in plasma [1]: 790 ± 206; KC level in plasma [1]: 1271 ± 224; LIF level in plasma [1]: 1.3 ± 0.2; LIX level in plasma [1]: 470 ± 145; M-CSF level in plasma [1]: 12 ± 1; MIG level in plasma [1]: 2486 ± 203; MIP-1beta level in plasma [1]: 109 ± 8; RANTES level in plasma [1]: 200 ± 28; TNF-alpha level in plasma [1]: 14 ± 1; VEGF level in plasma [1]: 0.5 ± 0.1; IL3 level in plasma [1]: 0.9 ± 0.1; IL7 level in plasma [1]: 8 ± 2; MCP-1 level in plasma [1]: 86 ± 20; MIP-1alpha level in plasma [1]: 88 ± 4; MIP-2 level in plasma [1]: 138 ± 7; Eotaxin level in plasma [2]: 855 ± 228; G-CSF level in plasma [2]: 22915 ± 410; GM-CSF level in plasma [2]: 11 ± 1; IFN gamma level in plasma [2]: 1 ± 1; IL1-alpha level in plasma [2]: 159 ± 39; IL1-beta level in plasma [2]: 3.6 ± 0.6; IL2 level in plasma [2]: 16 ± 1; IL4 level in plasma [2]: 0.4 ± 0.2; IL5 level in plasma [2]: 11 ± 2; IL6 level in plasma [2]: 155 ± 30; IL9 level in plasma [2]: 6 ± 2; IL10 level in plasma [2]: 90 ± 32; IL12 (p40) level in plasma [2]: 12 ± 2; IL12 (p70) level in plasma [2]: 40 ± 19; IL13 level in plasma [2]: 22 ± 2; IL15 level in plasma [2]: 49 ± 16; IL17 level in plasma [2]: 2.3 ± 0.6; IP-10 level in plasma [2]: 605 ± 102; KC level in plasma [2]: 764 ± 274; LIF level in plasma [2]: 1.5 ± 0.2; LIX level in plasma [2]: 547 ± 203; M-CSF level in plasma [2]: 16 ± 4; MIG level in plasma [2]: 2593 ± 317; MIP-1beta level in plasma [2]: 120 ± 29; RANTES level in plasma [2]: 270 ± 70; TNF-alpha level in plasma [2]: 14 ± 1; VEGF level in plasma [2]: 0.6 ± 0.1; IL3 level in plasma [2]: 0.5 ± 0.7; IL7 level in plasma [2]: 4 ± 1; MCP-1 level in plasma [2]: 157 ± 62; MIP-1alpha level in plasma [2]: 92 ± 7; MIP-2 level in plasma [2]: 128 ± 5; TNF-α levels in the plasma (in words) (72-hour study, P<0.05): markedly reduced; Eotaxin level in plasma [3]: 464 ± 252; G-CSF level in plasma [3]: 1116 ± 502; GM-CSF level in plasma [3]: 6 ± 2; IFN gamma level in plasma [3]: 6 ± 2; IL1-alpha level in plasma [3]: 63 ± 27; IL1-beta level in plasma [3]: 6.8 ± 3.8; IL2 level in plasma [3]: 34 ± 10; IL4 level in plasma [3]: 0.6 ± 0.4; IL5 level in plasma [3]: 2 ± 1; IL6 level in plasma [3]: 76 ± 31; IL9 level in plasma [3]: 3 ± 1; IL10 level in plasma [3]: 5 ± 1; IL12 (p40) level in plasma [3]: 8 ± 1; IL12 (p70) level in plasma [3]: 11 ± 5; IL13 level in plasma [3]: 23 ± 3; IL15 level in plasma [3]: 40 ± 22; IL17 level in plasma [3]: 4 ± 3; IP-10 level in plasma [3]: 150 ± 34; KC level in plasma [3]: 502 ± 150; LIF level in plasma [3]: 0.5 ± 0.1; LIX level in plasma [3]: 574 ± 445; M-CSF level in plasma [3]: 5 ± 2; MIG level in plasma [3]: 447 ± 137; MIP-1beta level in plasma [3]: 55 ± 13; RANTES level in plasma [3]: 19 ± 2; TNF-alpha level in plasma [3]: 7 ± 2; VEGF level in plasma [3]: 7.4 ± 2.4; IL3 level in plasma [3]: 0.1 ± 0.1; IL7 level in plasma [3]: 3 ± 1; MCP-1 level in plasma [3]: 34 ± 6; MIP-1alpha level in plasma [3]: 133 ± 11; MIP-2 level in plasma [3]: 56 ± 17; IL-1β, IL-2, IL-3, IL-4, IL-5, IL-6, IL-7, IL-9, IL-10, IL-12 (p40), IL-12 (p70), IL-13, IL-15 and IL-17 in plasma (in words) (at 24 hours): markedly reduced; MCP-1 in the plasma (in words) (at 24 hours and at 72 hours): inhibited; MIP-1α and MIP 1-β in the plasma (in words) (at 24 hours and at 72 hours): Suppressive effects; GM-CSF in the plasma (in words) (at 24 hours, 200 mg/kg preventive, 20 mg/kg therapeutic and 200 mg/kg therapeutic, P<0.001): highly significant depressions; TNF-α in the plasma (in words) (at 24 hours, all three single dose groups, P<0.001): markedly reduced; IFN-γ levels in the plasma (in words) (at 24 hours, all three single-dose groups, P<0.01): profoundly depressed; levels of plasma IL-1α (in words) (at 24 hours, any of the mouse groups): did not reduce; IFN-γ levels in the plasma (in words) (at 72 hours): Large reductions; GM-CSF in the plasma (in words) (at 72 hours, P<0.01): significant decreases; RANTES in the plasma (in words) (at both 24 hours and 72 hours): suppressed; MIG, IP10 and Eotaxin (in words) (marked suppression in the plasma or the BALF, but not in both): mixed; G-CSF, VEGF, KC, LIF, LIX and M-CSF in the plasma (in words) (mouse, in vivo): suppressed; number of the 15 interleukins tested in which major reductions were consistently noted (plasma and BALF): 14
